Test results published in patent publication US20200237736A1, “METHODS FOR PREVENTING OR TREATING CANCER RESISTANCE TO EGFR INHIBITION” (INSERM (INSTITUT NATIONAL DE LA SANTE ET DE LA RECHERCHE …, priority 2017, published 2020).

Columns and labels:
[1] = tested on: EGFR-C797S cells within PC9-(EGFR-T790M) cells; test: Colony forming assay, EGFR-C797S barcoded PC9-(EGFR-T790M) cells; format: cell-based; details: osimertinib 1 μM alone, 14 days; FIG. 3B
[2] = tested on: EGFR-C797S cells within PC9-(EGFR-T790M) cells; test: CRISPR-barcoding qPCR: EGFR-C797S barcode in PC9-(EGFR-T790M) cells; format: cell-based; details: osimertinib 1 μM alone, nine days; FIG. 3A
Text: (§1) The set of silent mutations is designed to enable PCR specificity and to avoid recognition by the corresponding sgRNA used to cleave the endogenous sequence. […] Immediately after transfection, the cells were pooled in the same flask.
(§2) gDNA was extracted using the NucleoSpin Tissue kit (Macherey-Nagel). To avoid potential amplification from ssODN molecules not integrated in the correct genomic locus, one of the two primers was designed to target the endogenous genomic sequence flanking the region sharing homology with the ssODNs.

[3] = tested on: NSCLC; details: first-line treatment; Soria et al. 2018; cited from earlier work
[4] = tested on: EGFR-T790M PC9 cells containing the EGFR-C797S CRISPR-barcode; details: mouse, in vivo
Method: From day 39, the mice were treated three times per week. The mean tumor size ±SEM is represented for the different groups (5 mice per group).
The proportions of the barcode in the cells prior to mouse injection was analyzed in parallel and arbitrarily set to 1. (B) For each group, the mean of the values (±SEM) shown in A is represented.
Gefitinib resistant PC9 cells (EGFR-T790M) containing the EGFR-C797 CRISPR-barcodes were mixed with matrigel and subcutaneously inoculated in the left and right flank (2×10^6 cells per site) of male SCID mice. The size of the tumors was measured by caliper every 3-4 days. […] From day 39, the mice were treated three times per week. Tumors from sacrificed mice were dissected, and gDNA was derived using the DNeasy Blood & Tissue Kit (Qiagen).

[5] = tested on: parental, EGFR-T790M and EGFR-T790M/C797S PC9 cells
[6] = tested on: NSCLC; details: treatment of NSCLC; Shepherd et al 2005; cited from earlier work
[7] = tested on: STAT3 phosphorylation; test: Immunoblot, STAT3 phosphorylation in PC9 cells; format: cell-based; details: for STATS phosphorylation: PC9 cells, 3 days, sorafenib 5 μM or SC-1 20 μM, FIG. 11B
Method: (§3) Immunoblot was performed using the indicated antibodies.
FIG. 11: SC-1 prevents resistance of NSCLC cells to EGFR TKI. […] The mean values (±SEM) representative of four independent experiments are represented. (B).
(§4) Cells were washed once with phosphate-buffered saline (PBS) and lysed on ice in a buffer containing 50 mM Hepes pH 7.6, 150 mM NaCl, 5 mM EDTA, 1% Nonidet P-40, 20 mM NAF, 2 mM sodium orthovanadate, supplemented with protease inhibitor mini tablets (Thermo Scientific). Lysates were cleared by centrifugation at 14,000 g during 15 min at 4° C. and protein concentrations were determined by using the Bradford protein assay (Bio-Rad). Sodium dodecyl sulfate (SDS) loading buffer was added to equal amounts of lysate, followed by SDS-polyacrylamide gel electrophoresis (SDS-PAGE) and transfer to polyvinylidene fluoride (PVDF) membrane (Thermo Scientific). Membranes were analyzed by chemiluminescence using a ChemiDoc imaging system (Biorad). All primary antibodies were purchased from Cell Signaling. Secondary antibodies were purchased from Santa Cruz.

[8] = tested on: MYC transcription factor; test: Immunoblot, MYC expression in PC9 cells; format: cell-based; details: sorafenib 5 μM, two days; parental and EGFR-T790M PC9 cells; FIG. 4B
Method: as §3, §4

[9] = tested on: MAPK activation; test: Immunoblot, MAPK activation in PC9 cells; format: cell-based; details: sorafenib 5 μM, 2 or 6 hours; FIG. 4A
Method: as §3, §4

[10] = target: kinase; details: cited from earlier work
[11] = tested on: EGFR wild-type NSCLC cell lines; details: Wang et al 2014; cited from earlier work
[12] = tested on: EGFR-wild type NSCLC cells; details: different cell models, including EGFR-wild type NSCLC cells; Su et al., 2015; Wang et al., 2014; cited from earlier work
[13] = tested on: EGFR; test: Immunoblot, EGFR expression in PC9 cells; format: cell-based; details: 3 days, sorafenib 5 μM or SC-1 20 μM, FIG. 11B
Method: The fraction of the EGFR-T790T and EGFR-T790M barcodes was assessed by qPCR and normalized to the total amount of gDNA using EGFR_Ctrl primers.

[14] = tested on: breast cancer cell lines; details: Liu et al. 2013; cited from earlier work
[15] = tested on: STAT3 phosphorylation; details: different cell models, including EGFR-wild type NSCLC cells; Su et al., 2015; Wang et al., 2014; cited from earlier work
[16] = tested on: PC9 cells containing the EGFR-T790M mutation; test: CRISPR-barcoding qPCR: fraction of EGFR-T790M barcode in PC9 cells in the presence of gefitinib; format: cell-based; details: SC-1 20 μM, gefitinib 1 μM, 5 days; FIG. 11A
Text: (§5) Cells were transfected with a Nucleofector II device (Lonza) using the Amaxa Nucleofector kit (Lonza) and electroporation program recommended by the manufacturer.
as §1, §2, §5, §1

In the case of C=CC(=O)Nc1cc(Nc2nccc(-c3cn(C)c4ccccc34)n2)c(OC)cc1N(C)CCN(C)C [osimertinib], the “amplification of EGFR-C797S cells (colony forming assay)” value [1] is given as “induced a strong amplification”, the “amplification of EGFR-C797S cells (qPCR)” value [2] is given as “induced a strong amplification” and the “adverse effects compared to first/second generation TKIs” value [3] is given as “less severe adverse effects”. For the same molecule, the “efficacy compared to first/second generation TKIs” value [3] was “superior efficacy”, the “growth of the tumors / tumor size” value [4] was “initially inhibited, but it eventually resumed after a few weeks” and the “cell growth (colony forming assay)” value [5] was “inhibited cell growth”.
For C#Cc1cccc(Nc2ncnc3cc(OCCOC)c(OCCOC)cc23)c1 [erlotinib], the clinical response rate [6] is given as “about 8.9%”.
With CNC(=O)c1cc(Oc2ccc(NC(=O)Nc3ccc(Cl)c(C(F)(F)F)c3)cc2)ccn1 [sorafenib] the STATS phosphorylation [7] was “inhibited”, the STAT3 phosphorylation ([7]; sorafenib 5 μM, 2 or 6 hours, FIG. 4) was “rapid inhibition” and the “expression of MYC transcription factor” value [8] was “down-regulated”. The MAPK activation [9] was “no effect”.
For N#Cc1ccc(Oc2ccc(NC(=O)Nc3ccc(Cl)c(C(F)(F)F)c3)cc2)cc1 [SC-1, N-[4-Chloro-3-(trifluoromethyl)phenyl]-N′-[4-(4-cyanophenoxy)phenyl]-urea], the kinase-inhibition activity [10] is given as “no kinase-inhibition activity”, the apoptosis [11] is given as “induces apoptosis” and the growth inhibition [12] is given as “growth inhibition”. For the same molecule, the EGFR expression [13] was “down-regulated”, the apoptosis [14] was “induces apoptosis” and the pSTAT3 inhibition [15] was “pSTAT3 inhibition”. For the same molecule, the “amplification of EGFR-T790M containing cells in the presence of gefitinib (qPCR)” value [16] was “could mimic the effects of sorafenib” and the STATS phosphorylation [7] was “inhibited”.
